Source: patent US20050222126A1, “Antiangiogenic compounds and an assay for inhibitors of cell invasion” (priority 2001, published 2005)
“Also recorded” adds a separate entry of the source.

What was measured:
MDA 231 cells [1] = experiment: Assay for invasion inhibitors (Matrigel, recovery of non-invading cells, MTT); assay type: cell-based, human; conditions: for IC50: 2.5 h, read-out: IC50 invasion inhibition
Experimental: Matrigel (Collaborative Biomedical Products, Bedford, Mass.) was diluted 1:1 in ice-cold DMEM/F12 and 50 μl was pipetted into wells of ice-cold 96-well cell culture plates (Falcon) using ice-cold pipette tips, avoiding the sides of each well. The matrix was then allowed to gel and then dry overnight in a dry 37° C. incubator followed by rehydration with 100 μl of growth medium 1 h prior to cell plating. This treatment produces a matrix that is less prone to breakage. On top of the Matrigel, was added 100 μl medium warmed to 37° C., with or without 1 μl of sponge extract dissolved in DMSO, followed by 100 μl medium containing 60,000 MDA 231 cells. Addition of 1 μl of DMSO served as a negative control. 50 μM […] LY294002, a phosphatidylinositol 3-kinase inhibitor known to inhibit invasion, served as a positive control. The cells were then incubated for 2.5 h to allow invasion to take place.
Most of the cell culture, medium was removed without disturbing the cells. This may be accomplished using a hand-held pipettor, but more consistent results are achieved using the aspiration function of a Bio-Tek Elx405 96-well plate washer with the aspiration needle positioned about 2 mm above the surface of the Matrigel. […] The cells were then suspended by pipetting up and down three times using the 100 μl setting of a hand-held pipettor, and 100 μl was withdrawn and transferred to fresh plates without Matrigel containing 100 μl medium supplemented with 30% fetal calf serum to inactivate the trypsin. The cells were then incubated overnight to allow attachment of cells to the plastic surface. Live cells were measured using the MTT assay: the cell culture medium was replaced with 100 μl fresh medium and 25 μl of a 5 mg/ml solution of 3(4,5-dimethylthiazol-2-yl)-2,5-diphenyltetrazolium bromide in phosphate-buffered saline. After 2 hr at 37° C., the solution was removed and 100 μl of 20% sodium dodecyl sulfate dissolved in dimethylformamide: water (1:1) was added to lyse the cells. After overnight incubation at 37° C., absorbance was measured at 570 nm.

MDA 231 cells [2] = experiment: Cytotoxicity: cell proliferation after 24 h incubation with compound; assay type: cell-based, human; conditions: for effects on cell proliferation: 24 h, proliferation followed up to 5 additional days
Experimental: The cytotoxic effects of Motuporamine C were examined by incubating cells in the presence of different concentrations of the compound for 24 h. Motuporamine C was washed away and cell proliferation was measured for up to 5 additional days. […] Likewise, the compounds shown in FIGS. 1, 2, 4, 5, 6, and 8-13 have low cytotoxicity.

MDA 231 cells [3] = experiment: Cell spreading and actin cytoskeleton on tissue culture plastic; assay type: cell-based, human
Experimental: The cells were plated on rigid tissue culture plastic in the presence of serum, which contains spreading factors (Ham). Under these conditions, most MDA 231 cells spread on the plastic within 4 h in the absence of Motuporamine C. […] These ruffles, which appear black in phase contrast microscopy represent sites of dynamic actin-mediated membrane movement in both spreading and migrating cells. […] These rounded cells remained attached to the tissue culture plastic by small lamellae that had small, discontinuous ruffles.
MDA 231 cells were also pre-spread for 20 hours on tissue culture plastic and then treated with Motuporamine C (5 μM) for 4 hours.

MDA 231 cells [4] = experiment: Cell migration: closure of gap in confluent monolayer; assay type: cell-based, human; conditions: 5 μM, 24 hours
Experimental: The effects of Motuporamine C on cell spreading and actin ruffling indicates invasion inhibition by decreasing cell migration. A sterile toothpick was drawn across a confluent monolayer of MDA 231 cells, leaving a cell-free gap of about 100 μm. Closure of the gap by cell migration was monitored by microscopy. In the absence of Motuporamine C, cells migrated into the gap and essentially closed it within 24 hours. These cells had broad lamellar ruffles along their leading edges throughout which were condensations of actin. […] These cells had only small and discontinuous ruffles along their leading edges and contained only small discrete patches of actin, looking similar to the “button-like” condensations observed in pre-spread cells.

HUVEC [5] = experiment: Endothelial sprouting assay; assay type: cell-based, human; conditions: VEGF 15 ng/ml
Experimental: Endothelial sprouting was assessed by a modification of Nehls, V. and Drenckham, D. (1995) Microvasc. Res, 50:311-322). Microcarrier beads coated with denatured collagen (Cytodex 3, Sigma) were seeded with HUVEC. When the cells reached confluence an the beads, equal numbers of HUVEC-coated beads were embedded in fibrin gels in 96-well plates. For preparation of fibrin gels, bovine fibrinogen was dissolved in MCDB medium at a concentration of 2.5 mg/ml. Aprotinin was added at a concentration of 0.05 mg/ml and the solution was filtered through a 0.22 μm filter. The fibrinogen solution was supplemented with 15 ng/ml vascular endothelial growth factor (VEGF) with or without Motuporamine C. As a control, fibrinogen solution without VEGF or Motuporamine C was used. […] After 3 days of incubation with daily changes of the medium, the number of capillary-like tubes formed per microcarrier bead (sprouts/bead) was counted by microscopy. Only sprouts greater than 150 μm in length and composed of at least 3 endothelial cells were counted.
In the endothelial sprouting assay, human umbilical vein endothelial cells (HUVEC) are seeded onto collagen-coated beads. Exposure to vascular endothelial growth factor stimulates the formation of capillary-like tubes called sprouts, whose number and length may be measured over time by microscopy.

[6] = system: chick chorioallantoic membrane; experiment: Chick chorioallantoic membrane assay (CAM) for angiogenesis; assay type: in vivo, chicken; conditions: VEGF 30 ng/ml
Experimental: Fertilized white Leghorn chicken eggs were incubated at 37° C. under conditions of constant humidity. On embryonic day 6, the developing chorioallantoic membrane (CAM) was separated form the shell by opening a small circular window at the broad end of the egg above the air sac. After removal of the inner membrane, the opening was sealed with Parafilm and the eggs were incubated for 2 more days. Motuporamine C was prepared in PBS supplemented with 30 ng/ml VEGF. On day 8, 20 μl was loaded onto 2 mm^3 gelatin sponges (Gelfoam, Pharmacia Upjohn) that were placed on the surface of the developing CAM. Sponges containing vehicle alone (20 μl PBS) were used as negative controls whereas sponges containing 20 μl of 30 ng/ml VEGF in PBS were used as positive controls, Eggs were resealed and returned to the incubator. On day 10, images of CAM were captured digitally using an Olympus SZX9 stereomicroscope equipped with a Sport RT digital imaging system (Diagnostics Instruments).

HUVEC [7] = experiment: HUVEC survival and proliferation; assay type: cell-based, human
Experimental: (§1) Motuporamine C had no effect on survival of confluent HUVEC at concentrations up to 10 μM and for up to 72 hours. […] Rather, Motuporamine C inhibited HUVEC migration as assessed using a modified Boyden chamber assay.

HUVEC [8] = experiment: HUVEC migration, modified Boyden chamber assay; assay type: cell-based, human; conditions: 2.5 μM and 5 μM, VEGF 15 ng/ml
Experimental: as §1

[9] = system: Lewis Lung and SCCVII tumours; experiment: Tumour growth in vivo; conditions: i.p. daily, 10-15 mg/kg/day, mice
[10] = system: primary Lewis lung tumour; experiment: Development of tumour metastases in vivo; conditions: i.p. 15 mg/kg/day, C57 mice, primary tumour irradiated
Experimental: Primary tumours were grown to a specific size and then irradiated permitting the animals to survive long enough for lung metastases to be quantified.

axonal growth cones = experiment: Neuronal migration in insect embryo model; assay type: in vivo; conditions: 5 μM
Experimental: Synthetic dihydromotuporamine (DiH-MPC, 5 μM) affected neuronal migration in a well-characterized insect embryo model. DiH-MPC slowed stereotypical migration of axonal growth cones whose ultimate synaptic targets are in the central nervous system (CNS). […] Therefore, the motuporamines have application in situations where reduced axonal sprouting would be of benefit after CNS wounding. This is of particular interest in spinal cord lesions where wound-induced axonal sprouting and migration (i.e. plasticity) leads to the inappropriate intermingling of neuronal pathways, which is a major impediment to clinically efficacious CNS regeneration.

NCCCNCCCN1CCCC/C=C\CCCCCCCC1 [Motuporamine C]
detachment of cells from the matrix (MDA 231 cells [1]; 5 μM): did not cause the cells to detach | activity in the invasion inhibition assay (in words) (MDA 231 cells [1]; MDA 231 cells on Matrigel): strong activity; also recorded: slightly more active | concentration that completely inhibited invasion (MDA 231 cells [1]; MDA 231 cells on Matrigel): 5 µM | IC50 (MDA 231 cells [1]; MDA 231 cells on Matrigel): 1000 nM | effects on cell proliferation (MDA 231 cells [2]; 1.6 μM): no detectable effects | effects on cell proliferation (MDA 231 cells [2]; 4 and 8 μM): mild inhibition | cytotoxicity (in words) (MDA 231 cells [2]; proliferating MDA 231 cells, low micromolar concentrations): little or no toxicity | cell spreading (MDA 231 cells [3]; plated on plastic with serum, 4 h, increasing doses up to 5 μM): decreased cell spreading | rounding of pre-spread cells (MDA 231 cells [3]; pre-spread 20 hours, 5 μM for 4 hours): did not round-up | actin cytoskeleton (rhodamine-phalloidin staining) (MDA 231 cells [3]; pre-spread cells, 5 μM for 4 hours): subtle changes | rounding of pre-spread cells (MDA 231 cells [3]; treatment up to 48 hours): did not cause significant cell rounding | cell migration (gap closure) (MDA 231 cells [4]): slows cell migration | sprout formation in response to VEGF (HUVEC [5]; 2.5 μM): clear inhibition | sprout formation in response to VEGF (HUVEC [5]; 5 μM): complete inhibition | angiogenesis in CAM assay [6]: inhibits angiogenesis | proliferation rate of HUVEC (HUVEC [7]): does not decrease | survival of confluent HUVEC (HUVEC [7]; up to 10 μM, up to 72 hours): no effect | migration of HUVEC towards VEGF (HUVEC [8]): inhibited the migration | reduction in tumour growth rate compared to controls [9]: 25-50% | tumour growth compared to vehicle controls [9]: significant decrease | incidence of lung metastases [10]: decreased incidence

NCCCNCCCn1c2ccccc2c2ccccc21 [carbazole analog]
activity in the invasion inhibition assay (in words) (MDA 231 cells [1]; MDA 231 cells on Matrigel): potent activity | IC50 (MDA 231 cells [1]; MDA 231 cells on Matrigel): 3000 nM

NCCCNCCCN1CCCCCCCCCCCC1 [Motuporamine A]
IC50 (MDA 231 cells [1]; MDA 231 cells on Matrigel): 3000 nM

C=C1[C@@H](C)[C@H]2[C@H](Cc3ccccc3)NC(=O)[C@]23[C@H](OC(C)=O)/C=C/[C@@](C)(O)C(=O)[C@@H](C)C/C=C/[C@H]3[C@@H]1O [cytochalasin D, reference compound]
actin cytoskeleton (MDA 231 cells [3]; 1 μg/ml): complete disassembly of the actin filaments | rounding of pre-spread cells (MDA 231 cells [3]; 1 μg/ml): round up completely

NCCCNCCCN1CCCCCCCCCCCCCC1 [DiH-MPC, Dihydromotuporamine C]
migration of axonal growth cones (axonal growth cones): slowed | steering or pathfinding of growth cones (axonal growth cones): no steering or pathfinding deficits
